What all share (test): Post-emergence efficacy, glasshouse spray test
Assay type in all cases: in vivo

In test [1] the test system is Euphorbia heterophylla (EPHHL). Particulars: Euphorbia heterophylla, post-emergence, 312 h, evaluated after 13 days, read-out: Control of weed species after post-emergence application, EPHHL (100=total damage to plant; 0=no damage to plant); for pest or weed control at 500 g/ha: Application Rate 500 g/Ha. Summed up:
(§1)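 Visual damage rating (0 = no damage, 100 = total damage) taken 13 days after a post-emergence spray. Plants had grown 14 days in pots under 24/16° C, 14 h light, 65% humidity before treatment.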

The test system of test [2] is Setaia fabei (SETFA). To be noted: Setaria faberi, post-emergence, 312 h, evaluated after 13 days, read-out: Control of weed species after post-emergence application, SETFA (100=total damage to plant; 0=no damage to plant); for pest or weed control at 500 g/ha: Application Rate 500 g/Ha. A digest of the protocol:
as §1

The subject of test [3] is Ipomoea hederacea (IPOHE). To be noted: Ipomoea hederacea, post-emergence, 312 h, evaluated after 13 days, read-out: Control of weed species after post-emergence application, IPOHE (100=total damage to plant; 0=no damage to plant); for pest or weed control at 500 g/ha: Application Rate 500 g/Ha. Summed up: as §1
Test [4] deals with Echinochloa crus-galli (ECHCG). To be noted: Echinochloa crus-galli, post-emergence, 312 h, evaluated after 13 days, read-out: Control of weed species after post-emergence application, ECHCG (100=total damage to plant; 0=no damage to plant); for pest or weed control at 500 g/ha: Application Rate 500 g/Ha. Summed up:
as §1

The subject of test [5] is Amaranthus palmeri (AMAPA). To be noted: Amaranthus palmeri, post-emergence, 312 h, evaluated after 13 days, read-out: Control of weed species after post-emergence application, AMAPA (100=total damage to plant; 0=no damage to plant); for pest or weed control at 500 g/ha: Application Rate 500 g/Ha. Summed up:
as §1

For test [6], the system named is Lolium perenne (LOLPE). Particulars: Lolium perenne, post-emergence, 312 h, evaluated after 13 days, read-out: Control of weed species after post-emergence application, LOLPE (100=total damage to plant; 0=no damage to plant); for pest or weed control at 500 g/ha: Application Rate 500 g/Ha. Summed up:
as §1

The subject of test [7] is Chenopodium album (CHEAL). To be noted: Chenopodium album, post-emergence, 312 h, evaluated after 13 days, read-out: Control of weed species after post-emergence application, CHEAL (100=total damage to plant; 0=no damage to plant); for pest or weed control at 500 g/ha: Application Rate 500 g/Ha. Summed up:
as §1

The test system of test [8] is Eleusine indica (ELEIN). Particulars: Eleusine indica, post-emergence, 312 h, evaluated after 13 days, read-out: Control of weed species after post-emergence application, ELEIN (100=total damage to plant; 0=no damage to plant); for pest or weed control at 500 g/ha: Application Rate 500 g/Ha. A digest of the protocol: as §1
Test [9] concerns Digitaria sanguinalis (DIGSA). To be noted: Digitaria sanguinalis, post-emergence, 312 h, evaluated after 13 days, read-out: Control of weed species after post-emergence application, DIGSA (100=total damage to plant; 0=no damage to plant); for pest or weed control at 500 g/ha: Application Rate 500 g/Ha. Summed up:
as §1

The record followed here is patent US20210053957A1, “HERBICIDAL COMPOUNDS” (SYNGENTA PARTICIPATIONS AG, priority 2018, published 2021).

Take `COC(=O)C[n+]1ccc(-c2nc(C)co2)cn1` [Compound A133]: the pest or weed control at 500 g/ha in test [1] came out at 0%; in test [2] it was 0%; in test [3], 10%; in [4], 10%; in test [5], 0%; in test [6], 0%. Moreover, the results for the pest or weed control at 500 g/ha in [7], in test [8] and in [9] were 0%, 10% and 20%, respectively.
As for `Cn1ccc(-c2cc[n+](CCS(=O)(=O)[O-])nc2)n1` [Compound A2], the pest or weed control at 125 g/ha in test [1] (Application Rate 125 g/Ha) was 30%; in [2] (Application Rate 125 g/Ha), 20%; in test [3] (Application Rate 125 g/Ha) it was 10%; in test [4] (Application Rate 125 g/Ha), 10%; in test [5] (Application Rate 125 g/Ha), 0%; in [6] (Application Rate 125 g/Ha), 0%. For the same compound, the pest or weed control at 125 g/ha in test [7] (Application Rate 125 g/Ha) came out at 0%; in [8] (Application Rate 125 g/Ha), 10%; in test [9] (Application Rate 125 g/Ha) it was 20%.
For the compound `Cc1coc(-c2cc[n+](CC(=O)O)nc2)n1` [Compound A132], the pest or weed control at 500 g/ha in test [1] came to 70%; in test [2], 80%; in test [3], 10%; in test [4], 90%; in [5], 90%; in test [6] it was 50%. In addition, the figures for the pest or weed control at 500 g/ha in [7], in [8] and in test [9] were 70%, 90% and 90%, respectively.
`Cc1coc(-c2cc[n+](CCOS(=O)(=O)[O-])nc2)n1` [Compound A134]: the pest or weed control at 500 g/ha in test [1] amounted to 70%; in test [2], 70%; in test [3], 50%; in test [4], 70%; in test [5] it was 90%; in test [6], 40%. The pest or weed control at 500 g/ha turned out to be 30% in [7], 80% in [8] and 60% in test [9].
For the compound `CNC(=O)c1oc(-c2cc[n+](CCC(=O)OC)nc2)nc1C` [Compound A137], the pest or weed control at 500 g/ha in test [1] is 20%; in test [2] it was 30%; in [3], 10%; in test [4], 40%; in [5] it was 20%; in [6], 10%. Further, the pest or weed control at 500 g/ha was determined as 10% in test [7], 30% in test [8] and 50% in [9].
As for `Cn1ccnc1-c1cc[n+](CCC(=O)O)nc1` [Compound A31, 3-[4-(1-methylimidazol-2-yl)pyridazin-1-ium-1-yl]propanoic acid; 2,2,2-trifluoroacetate], the pest or weed control at 500 g/ha in [1] worked out at 30%; in test [2], 60%; in test [3] it was 10%; in [4], 40%; in [5], 30%; in test [6] it was 20%. In addition, the pest or weed control at 500 g/ha in test [7] worked out at 20%; in test [8], 50%; in [9], 50%.
Turning to `CNc1nnc(-c2cc[n+](CCS(=O)(=O)[O-])nc2)s1` [Compound A45], the pest or weed control at 500 g/ha in test [1] was 90%; in test [2], 70%; in test [3], 20%; in test [4] it was 40%; in test [5], 100%; in test [6] it was 70%. The figures for the pest or weed control at 500 g/ha in [7], in test [8] and in test [9] were 80%, 70% and 50%, respectively.
For the compound `Nc1nnc(-c2cc[n+](CCC(=O)O)nc2)s1` [Compound A47], the pest or weed control at 500 g/ha in test [1] is 100%; in test [2], 90%; in [3], 30%; in test [4], 90%; in test [5] it was 100%; in test [6], 100%. The figures for the pest or weed control at 500 g/ha in test [7], in test [8] and in [9] were 100%, 100% and 90%, respectively.
In the case of `Cc1cnc(-c2cc[n+](CCC(=O)O)nc2)o1` [Compound A15, 3-[4-(5-methyloxazol-2-yl)pyridazin-1-ium-1-yl]propanoic acid; 2,2,2-trifluoroacetate], the pest or weed control at 500 g/ha in [1] stood at 100%; in [2], 70%; in [3], 30%; in [4], 80%; in test [5], 100%; in test [6] it was 60%. For the same compound, the pest or weed control at 500 g/ha turned out to be 80% in test [7], 100% in test [8] and 80% in test [9].
On to `Cn1nccc1-c1cc[n+](CCCS(=O)(=O)[O-])nc1` [Compound A4], for which the pest or weed control at 500 g/ha in [1] came to 40%; in [2] it was 20%; in test [3], 10%; in [4], 20%; in test [5], 10%; in test [6], 0%. Also, the pest or weed control at 500 g/ha in test [7] was found to be 30%; in test [8], 10%; in test [9], 30%.
On to `CC(C[n+]1ccc(-c2ncco2)cn1)C(=O)O` (stereo not drawn) [Compound A88], for which the pest or weed control at 500 g/ha in test [1] came to 50%; in test [2] it was 60%; in test [3] it was 30%; in [4], 80%; in test [5], 100%; in [6], 30%. Besides, the values for the pest or weed control at 500 g/ha in [7], in [8] and in [9] were 100%, 30% and 70%, respectively.
In the case of `Cn1ncnc1-c1cc[n+](CCS(=O)(=O)[O-])nc1` [Compound A16], the pest or weed control at 500 g/ha turned out to be 90% in test [1]; 80% in test [2]; 80% in test [3]; 80% in test [4]; 100% in test [5]; 90% in [6]. Also, the pest or weed control at 500 g/ha in test [7] was found to be 100%; in test [8], 80%; in test [9], 70%.
